Columns and labels:
[1] = Inhibition of PP2A
[2] = Inhibition of PP1
[3] = Selectivity ratio of IC50 for PP2A over IC50 for PP1

| SMILES | IC50 [1] [nM] | IC50 [2] [nM] | Ratio IC50 [3] |
| --- | --- | --- | --- |
| CO[C@H]([C@H](O)CC(=O)[C@@H](C)[C@@H](O)CC[C@@H](C)[C@@H]1O[C@]2(CC[C@@H](C)[C@H](CC[C@H](C)C(C)=O)O2)CC[C@@H]1C)[C@H](OC(=O)C[C@@H](O)C1=C(C)C(=O)OC1=O)C(C)C [TAUTOMYCIN] | 22 | 22 |  |
| C=C/C(=C/C(=O)C[C@H](C)C[C@@H](C)CC[C@H](O)[C@H](C)C(=O)C[C@@H](O)[C@H](C)[C@@H](C)OC(=O)C[C@@H](C)C1=C(C)C(=O)OC1=O)CC [TAUTOMYCETIN] |  |  | 40 |

Reference: ChEMBL document CHEMBL1152336, “Characterization of the tautomycetin biosynthetic gene cluster from Streptomyces griseochromogenes provides new insight into dialkylmaleic anhydride biosynthesis” (J Nat Prod, 2009)
